From article PMC4607267 (Molecular and biochemical parasitology, 2015)

Target: T1, SmGAR (Schistosoma mansoni, UniProt A0A3Q0KNW8)
T1 sequence (A0A3Q0KNW8 5-938): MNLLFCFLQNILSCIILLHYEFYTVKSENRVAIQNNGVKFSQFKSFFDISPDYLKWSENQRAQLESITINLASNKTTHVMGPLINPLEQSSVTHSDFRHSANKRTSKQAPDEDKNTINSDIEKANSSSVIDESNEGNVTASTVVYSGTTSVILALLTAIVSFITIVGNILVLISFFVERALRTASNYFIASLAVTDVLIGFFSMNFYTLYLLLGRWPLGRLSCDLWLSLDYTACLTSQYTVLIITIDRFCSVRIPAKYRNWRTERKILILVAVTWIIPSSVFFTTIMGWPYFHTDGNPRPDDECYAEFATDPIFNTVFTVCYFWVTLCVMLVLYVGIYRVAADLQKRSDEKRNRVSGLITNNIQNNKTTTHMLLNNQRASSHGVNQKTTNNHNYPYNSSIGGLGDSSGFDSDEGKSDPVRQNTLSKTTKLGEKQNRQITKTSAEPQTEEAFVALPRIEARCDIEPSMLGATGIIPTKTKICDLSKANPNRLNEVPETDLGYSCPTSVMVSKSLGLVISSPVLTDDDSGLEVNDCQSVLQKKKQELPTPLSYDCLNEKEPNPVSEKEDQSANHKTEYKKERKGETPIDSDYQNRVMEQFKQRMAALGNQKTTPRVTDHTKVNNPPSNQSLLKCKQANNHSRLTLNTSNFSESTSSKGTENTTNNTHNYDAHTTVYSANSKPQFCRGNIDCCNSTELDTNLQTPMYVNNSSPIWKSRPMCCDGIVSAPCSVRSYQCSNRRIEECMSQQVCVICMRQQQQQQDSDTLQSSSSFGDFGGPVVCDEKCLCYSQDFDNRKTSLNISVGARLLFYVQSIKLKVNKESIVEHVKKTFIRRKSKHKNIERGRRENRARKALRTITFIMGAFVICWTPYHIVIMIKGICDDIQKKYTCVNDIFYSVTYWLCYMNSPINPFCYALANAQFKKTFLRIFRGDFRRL
Test: yeast HIS3 reporter growth assay, Alamar Blue
Assay type: cell-based
Conditions: read-out: % inhibition at 1 mM

inhibition at 1000 µM: < 50%
Structure (SMILES): CN1CCN(CC(=O)N2c3ccccc3C(=O)Nc3cccnc32)CC1 [pirenzepine]
